From patent publication US20110070269A1, “LIPOPOLYSACCHARIDE ISOLATED FROM PYRULARIA TISSUE AND/OR PYRULARIA-ASSOCIATED BACTERIA AND USES THEREOF” (THERAPRO TECHNOLOGIES, INC., priority 2009, published 2011)

Experiments:
[1] = test system: Balb/C mice; assay: In vivo neutropenia model (sub-lethal cyclophosphamide); design: species or system mouse; conditions: day five
Protocol: Eighteen to twenty-four hours later (day 1), control mice received an injection of saline and the PyEx group received a single dose of PyEx (20 μg/mouse). Mice were bled sequentially via the retro-orbital sinus or tail vein at various times thereafter. Blood was collected in heparinized capillary tubes.
For determination of total versus white cells, blood was diluted into Isoton II (Beckman-Coulter, Fullerton, Calif.). Total cells and white cells were counted using a Model ZM Coulter counter (Beckman-Coulter, Fullerton, Calif.). White cell counts were determined following treatment of whole blood with a RBC lytic reagent (Zap-Oglobin, Beckman-Coulter, Fullerton, Calif.). Blood granulocytes and myelocytes were quantitated by means of an EPICS-XL™ flow cytometry after lysis of red cells.
To more clearly determine what populations of cells were stimulated by treatment with PyEx, in a similar experiment blood and bone marrow cells were collected and analyzed for total blood granulocytes and myelocytes. […] PyEx-1 (20 μg/mouse) was given to mice 24 hours after administration of CP. Blood from PyEx-1 treated experimental and saline treated control mice was collected with heparinized capillary tubes five days after CP administration. Following lysis of red cells, the remaining cells were analyzed by means of an EPICS-XL™ flow cytometer (Beckman-Coulter, Fullerton, Calif.). […]

[2] = test system: Balb/C mice; assay: Prevention of drug-induced (melphalan) toxic death; format: in vivo, mouse; conditions: melphalan 100 mg/kg i.p. alone
Protocol: The effect of PyEx upon myelocyte stimulation was also observed in vivo as prevention of drug-induced myelosuppression. […] A separate group received melphalan (100 mg/kg, i.p.) and PyEx-1 (10 μg/mouse, subcutaneously). PyEx-1 was given immediately after or as late as 18 hours after melphalan administration, and every 48 hours thereafter.

[3] = test system: bone marrow cells; assay: Bone marrow cell viability (propidium iodide exclusion); format: cell-based; conditions: mouse, 3 mM
Protocol: Cells (200 μL, prepared as described above) were collected after gentle trituration to resuspend cells. Each aliquot was diluted with 1 mL PBS, centrifuged to pellet the cells, and the supernatant liquid was removed. The washed cells were sequentially stained in the dark at 4° C. for 15 minutes with anti-CD16/32 to prevent non-specific labeling, then for 45 minutes with either anti-Mac-1-FITC×anti-Mac-1-PE or with Gr-1-FITC×Mac-1-PE. Cells were washed once at 4° C. with 1 mL of PBS and then resuspended in 1 mL of PBS. Human cells were labeled with anti-Mac-1 as above or with anti-Mac-1-FITC×anti-CD14. A Coulter EPICS-XL™ flow cytometer was used to enumerate dual, positively-staining control sub-populations and detection of nascent stimulated sub-populations. Activated sub-populations, which labeled with more intensity along the y-axis in Gr-I-FITC×Mac-1-PE, were designated as Mac-1^+hi. Control unactivated cells that also stained positively in both dimensions were designated, Mac-1^+lo. Dead cells were eliminated from analysis by prior staining with propidium iodide. Approximately 15-20×10^3 cells were counted for each analysis. Percent of cells activated was determined as:
Over 15×10^3 cells were analyzed for each sample. Bone marrow cell viability among all samples including the untreated control was 70-76% as determined by propidium iodide exclusion.

[4] = test system: murine bone marrow cells; assay: Bone marrow activation assay (flow cytometry, percent of cells activated); format: cell-based, mouse; conditions: 3 mM
Protocol: Bone marrow was flushed from the femurs of Balb/C mice with RPMI medium. Cells were collected by centrifugation and the pellet treated with 1 mL of red cell lysis buffer (as described above) for five minutes at 25° C., followed by dilution with 12 mL of RPMI media. Cells were washed by two cycles of centrifugation and resuspension in RPMI. On the final wash, cells were counted using a hemocytometer and the final pellet was resuspended to 4×10^6 cells/mL with RPMI media for use in activation assays, which were quantitated by flow cytometric analysis (described below).
Cells (200 μL, prepared as described above) were collected after gentle trituration to resuspend cells. Each aliquot was diluted with 1 mL PBS, centrifuged to pellet the cells, and the supernatant liquid was removed. The washed cells were sequentially stained in the dark at 4° C. for 15 minutes with anti-CD16/32 to prevent non-specific labeling, then for 45 minutes with either anti-Mac-1-FITC×anti-Mac-1-PE or with Gr-1-FITC×Mac-1-PE. Cells were washed once at 4° C. with 1 mL of PBS and then resuspended in 1 mL of PBS. Human cells were labeled with anti-Mac-1 as above or with anti-Mac-1-FITC×anti-CD14. […] Approximately 15-20×10^3 cells were counted for each analysis. Percent of cells activated was determined as: […]

[5] = Physical analysis: stability of the immunostimulatory/mitogenic activity; format: physicochemical; conditions: proteinase K 50 μg/ml, 10 mM Tris pH 8.0, 10 mM EDTA, 0.5% SDS, 56° C., 30 minutes
Protocol: A mitogenic assay was used as a measure of immunostimulation. For the mitogen assay, isolated cells were diluted to 1.5×10^6 cells/mL. Aliquots of cells (200 μL/well) were incubated in sterile 96-well plates for 24 to 48 hours prior to the addition of 1 μCi/well of [^3H]thymidine. Radiolabeled DNA was collected on glass fiber filters by means of an Inotech cell harvester (Rockville, Md.) and associated radioactivity was determined by means of an Inotech radiometric instrument or by scintillation counting of individual filters. TLF-D, a proprietary reagent, was utilized at 10 μg/ml to amplify the mitogenic activity of Pyrularia extract (PyEx) in a synergistic fashion.

[6] = test system: human bone marrow cells; assay: Activation of human bone marrow (Mac-1 x CD14 flow cytometry); format: cell-based; conditions: 5 ng/mL, fresh marrow from normal donor
Protocol: Human bone marrow was provided by the Bone Marrow Transplantation Unit, University of Utah. Experiments were initiated upon obtaining fresh marrow from normal donors. Whole marrow was treated as described above for murine marrow samples. Following incubation for 24 to 36 hours with PyEx or other agents as described, cells were stained with anti-Mac-1-FITC×anti-CD14-PE. Cells were analyzed using a Coulter EPICS-XL™ flow cytometer (Beckman-Coulter, Fullerton, Calif.). Activated populations were identified by positive staining with Mac-1×CD14 (designated Mac-1^+, CD14^+).

With `O=P1(N(CCCl)CCCl)NCCCO1` (stereo not drawn) [Cyclophosphamide] the “total WBC restoration, % of the difference between the nadir value and the control value” ([1]; CP 200 mg/kg alone) was 45% and the “Percentage of Granulocytes in Control” value ([1]; cyclophosphamide 200 mg/kg alone, blood) was 1%.
In the case of `N[C@@H](Cc1ccc(N(CCCl)CCCl)cc1)C(=O)O` [Melphalan, melphalan], the “Average time of death” value [2] is reported as “day 7”, the “Drug related deaths/# in group” value [2] is reported as 3/6 and the “Average time of death” value ([2]; listed as melphalan) is reported as “eight”.
Work on `CC(=O)CCCCn1c(=O)c2c(ncn2C)n(C)c1=O` [pentoxifylline] yielded a Viability [3] of 61.5% and an Activation [4] of 7.54%.
With concanavalin A the “effect of proteinase K treatment on mitogenic activity” value [5] was “completely inactivate”.
In the case of “rhGM-CSF: Recombinant human granulocyte macrophage-colony stimulating factor”, the “activated sub-population (Mac-1+, CD14+), % of total cells” value [6] is reported as 9%.
